The subject of series [1] is Bacteroides thetaiotaomicron (MDA-JAX BT001). The series is described as follows: MIC of meropenem with MIC test strips. Particulars: mouse-derived BT. The series is classed as cell-based. How it is done: Mouse-derived BT (MDA-JAX BT001), Enterococcus faecalis (MDA-JAX EF001) and Clostridium disporicum (MDA-JAX CD001), Clostridium saudiense (MDA-JAX CS001), and Lachnospiraceae unclassified (MDA-JAX LS001) were isolated and cultured from mouse stool samples suspended in 1 ml of chilled 20% anaerobic glycerol in a Whitley anaerobic chamber (10% H2, 5% CO2 and 85% N2). Human-derived BT (ATCC 29148) was purchased from ATCC. Bacterial number was quantified using a Nexcelom Cellometer cell counter with SYTO™ BC dye and propidium iodide. For measuring MICs against meropenem, bacteria were cultured on BYE plates including 5% sterilized rumen fluid (Fisher Scientific) with MIC test strips (Liofilchem™ MTS™ Meropenem [MRP] 0.016-256 μg/mL, Fisher Scientific). Bacterial growth experiments were performed in a bacterial liquid media, BYEM10, composed of a hybrid of BHI and M10 supplemented with yeast extract (Table 4). Bacteria were cultured up to 48 hours at a starting concentration of 1×10^6 bacteria/ml in BYEM10 broth (pH 7.2) with and without 5 mg/ml of porcine gastric mucin (M1778, Sigma-Aldrich) with or without 0.5 mg/ml of D-(+)-xylose (X3877), D-(+)-mannose (M8574, Sigma-Aldrich) or D-(+)-glucose (G8270). Optical densities (OD600 nm) of bacterial cultures were measured with a BioTek EPOCH 2 plate reader.

The next series deals with intestinal microbiota. The series is described as follows: Fecal microbiome of 44 allo-HSCT patients, pre-HSCT versus day 14. The series is classed as in vivo, human. Conditions: pre-HSCT vs day 14, paired analysis. How it is done:
Fecal samples which were collected from patients and mice and colonic mucosal samples, which were collected from mice were weighed before DNA isolation. In brief, genomic DNA was isolated using the QIAamp DNA mini kit (51306, Qiagen) according to the manufacturer's protocol that was modified to include an intensive bead-beating lysis step. The V4 region of 16S rRNA gene was amplified by PCR from 100 ng of each of extracted and purified genomic DNA using 515 forward and 806 reverse primer pairs (Caporaso et al., 2012). The quality and quantity of the barcoded amplicons were assessed on an Agilent 4200 TapeStation system (Agilent) and Qubit Fluorometer (Thermo Fisher Scientific), and libraries were prepared after pooling at equimolar ratios. […]
Sequencing data from paired-end reads were de-multiplexed using QIIME 2 (Caporaso et al., 2010). Merging of paired-end reads, dereplicating, and length filtering was performed using VSEARCH 2.17.1 (Rognes et al., 2016). […] Weighted UniFrac distances (Lozupone et al., 2011) were determined using QIIME 2, visualized using principal coordinate analysis, and evaluated for statistical significance using permutational multivariate analysis of variance (PERMANOVA) testing. […] Paired samples were analyzed using the Wilcoxon signed rank test with adjustment for multiple comparisons.

In another series the test system is MLNs. The series can be described thus: Microbiologic analysis of bacterial translocation to mesenteric lymph nodes. The series is classed as in vivo. Conditions: allogeneic mice, day 18. Here is the method: Mesenteric lymph nodes (MLNs) were harvested from mice and homogenized in PBS and cultured anaerobically on BHI plates containing yeast extract and 5% sterilized rumen fluid (Fisher Scientific) and Columbia blood agar plates (BD) for 4 days at 37° C. Colony-forming units (CFUs) were counted and adjusted per organ. Bacteria were identified by MALDI Biotyper.

Turning to `C[C@@H](O)[C@H]1C(=O)N2C(C(=O)O)=C(S[C@@H]3CN[C@H](C(=O)N(C)C)C3)[C@H](C)[C@H]12` [meropenem], the MIC in series [1] was found to be 4 µg/mL. Also, the “change of genus Bacteroides from baseline” value in the series with intestinal microbiota is reported as “significant expansion of bacteria from the genus Bacteroides”. Also, the “bacterial loads in MLNs” value with MLNs was “Higher bacterial loads”.

The record behind these values is patent US20260021147A1, “COMPOSITIONS AND METHODS FOR TREATING INFLAMMATORY DISEASE” (The Regents of the University of Michigan, priority 2022, published 2026).
